Experimental data: patent US12509460B2 (Skyhawk Therapeutics, Inc., priority 2019, dated 2025)
pEC50: −log10 of the molar value. Read-outs that look alike come from different tables or passages of the source.

Columns and labels:
[1] = tested on: MDR1-MDCK cell monolayers; details: dog, MDCK-MDR1, 120 min, 5 μM, pH 7.4
Procedure: (§1) Example A13: Assessment of Blood-Brain-Barrier (BBB) Penetration Potential Via an MDCK-MDR1 Permeability Assay
(§2) The permeability of compounds is assessed for BBB penetration potential by use of an MDCK-MDR1 assay (Catalog EA203) performed by Absorption Systems, Exton PA.
(§3) Experimental Procedure: MDR1-MDCK cell monolayers are grown to confluence on collagen-coated, microporous membranes in 12-well assay plates. The permeability assay buffer is Hanks' balanced salt solution containing 10 mM HEPES and 15 mM glucose at a pH of 7.4. The buffer in the receiver chamber also contained 1% bovine serum albumin. The dosing solution concentration is 5 μM of test article in the assay buffer. Cell monolayers are dosed on the apical side (A-to-B) or basolateral side (B-to-A) and incubated at 37° C. with 5% CO2 in a humidified incubator. Samples are taken from the donor and receiver chambers at 120 minutes. Each determination is performed in duplicate. The flux of lucifer yellow is also measured post-experimentally for each monolayer to ensure no damage is inflicted to the cell monolayers during the flux period. All samples are assayed by LC-MS/MS using electrospray ionization.
(§4) The apparent permeability (Papp) and percent recovery are calculated as follows:
(§5) Analytical Method: Liquid Chromatography. Column: Waters ACQUITY UPLC BEH Phenyl 30 ×2.1 mm, 1.7 μm; M.P. Buffer. 25 mM ammonium formate buffer, pH 3.5; Aqueous Reservoir (A): 90% water, 10% buffer, Organic Reservoir (B): 90% acetonitrile, 10% buffer, Flow Rate: 0.7 mL/minute; Gradient Program:
(§6) • Total Run Time: 1.00 minute • Autosampler. 2 μL injection volume • Wash1: water/methanol/2-propanol:1/1/1; with 0.2% formic acid • Wash2: 0.1% formic acid in water • Brain Penetration • Potential Classification: A-B Papp≥3.0 and Efflux Ratio <3.0: High • A-B Papp≥3.0 and 10≥Efflux Ratio >3.0: Moderate • A-B Papp≥3.0 and Efflux Ratio≥10: Low • A-B Papp<3.0: Low

[2] = tested on: SMN protein in spinal muscular atrophy (SMA) patient fibroblasts (GM03813, Coriell); assay: SMN protein assay, Mesoscale Discovery (MSD); assay type: cell-based, human; details: for pEC50: read-out: SMN2 protein EC50
In short: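 Absolute SMN levels were quantified by MSD against an SMN protein standard curve (1 μg/ml to 19.5 pg/ml) run on each plate. Samples were lysates of GM03813 patient fibroblasts (7000 cells/well) treated 48 hours with compound doses from 2.5 μM down to 0.6 nM.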

[3] = tested on: MDR1 (P-gp); assay: in vitro; details: dog, MDCK-MDR1, pH 7.4
Procedure: as §1, §2, §3, §4, §5, §6

[4] = tested on: MDR1; assay: in vitro; details: dog, MDCK-MDR1, pH 7.4
Procedure: as §1, §2, §3, §4, §5, §6

[5] = tested on: mHTT protein in GM04724 (CAG 70/20) Huntington's disease patient lymphoblast cells; assay: mHTT protein assay, 2B7-MW1 assay via Mesoscale Discovery (MSD); assay type: cell-based, human
In short: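 Signal from the 2B7-MW1 antibody pair on MSD, rising with polyQ length and smaller HTT fragments, measured mHTT after 48 h compound exposure (0.6 nM–10 μM) in GM04724 cells. A parallel replicate plate gave CellTiter Glo viability.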

[6] = SMA patient fibroblasts (GM03813), 48 hours
[7] = GM04724 (CAG 70/20) Huntington's disease patient lymphoblasts
[8] = SMA patient fibroblasts GM03813, 48 hours, MSD
[9] = GM04724 Huntington's disease patient lymphoblasts

Row | SMILES | MDCK-MDR1: % Recov A-B [1] [%] | MDCK-MDR1: % Recov B-A [1] [%] | pEC50 [2, 6] | Papp A→B at 120 min, 5 μM [3] [×10⁻⁶ cm/s] | Papp B→A at 120 min, 5 μM [3] [×10⁻⁶ cm/s] | efflux ratio at 120 min, 5 μM [4] | mHTT protein EC50 [5, 7] | SMN2 protein EC50 [2, 8] | mHTT protein EC50 [5, 9] | pEC50 [5, 9] | SMN2 protein EC50 [2, 6] | pEC50 [2, 8]
1 | CN(C)C(=O)c1cc2cc(O)c(-c3ccc(N(C)[C@H]4C[C@@H]5CC[C@H]([C@H]4F)N5C)nn3)cc2o1 (single isomer, unassigned) [Compound 106B] | 92 | 99 | 6.30 to 7.00 | 1.61 | 55.7 | 35 | E (501 ≤ E ≤ 10.000) | – | – | – | – | –
2 | CNC(=O)c1cc(O)c(-c2ccc(N(C)[C@@H]3C[C@H]4CC[C@@H]([C@@H]3F)N4C)nn2)cc1F (single isomer, unassigned) [Compound 96A] | 100 | 114 | – | 2.97 | 53.7 | 18 | – | E (501 ≤ E ≤ 10.000) | E (501 ≤ E ≤ 10.000) | – | – | –
3 | CCc1cn(-c2ccc(-c3ccc(N(C)[C@@H]4C[C@H]5CC(F)(F)[C@@H](C4)N5)nn3)c(O)c2)nn1 (single isomer, unassigned) [Compound 64A] | 64 | 78 | – | 7.18 | 52.2 | 7 | – | E (501 ≤ E ≤ 10.000) | E (501 ≤ E ≤ 10.000) | – | – | –
4 | CCc1cn(-c2ccc(-c3ccc(N(C)[C@H]4C[C@@H]5CC(F)(F)[C@H](C4)N5)nn3)c(O)c2)nn1 (single isomer, unassigned) [Compound 64B] | 69 | 83 | – | 5.61 | 58.6 | 10 | – | E (501 ≤ E ≤ 10.000) | – | 6.30 to 7.00 | – | –
5 | CN(c1ccc(-c2cc(F)c(-n3ccnn3)cc2O)nn1)[C@@H]1C[C@H]2CC[C@@H]([C@@H]1F)N2C [Compound 103A, 4-fluoro-2-(6-(((1S,2S,3R,5R)-2-fluoro-8-methyl-8-azabicyclo[3.2.1]octan-3-yl)(methyl)amino)pyridazin-3-yl)-5-(1H-1,2,3-triazol-1-yl)phenol] | 86 | 91 | – | 13.9 | 60.3 | 4 | E (501 ≤ E ≤ 10.000) | – | – | – | E (501 ≤ E ≤ 10.000) | –
6 | O=c1c2cc(O)c(-c3ccc(N(C4CC4)[C@H]4C[C@@H]5CC[C@@H](N5)[C@H]4F)nn3)cc2ncn1CC(F)(F)F (single isomer, unassigned) [Compound 60B] | 88 | 92 | – | 0.68 | 53 | 77 | – | – | – | 6.30 to 7.00 | – | 6.30 to 7.00
7 | CN(C)C(=O)c1cc2cc(O)c(-c3ccc(N(C)[C@@H]4C[C@H]5CC[C@@H]([C@@H]4F)N5C)nn3)cc2o1 (single isomer, unassigned) [Compound 106A] | 95 | 92 | – | 1.87 | 63.1 | 34 | E (501 ≤ E ≤ 10.000) | – | – | – | E (501 ≤ E ≤ 10.000) | –
8 | Cc1nc2cc(-c3ccc(N(C)[C@H]4C[C@@H]5CC[C@H]([C@H]4F)N5C)nn3)c(O)cc2c(=O)n1CC(F)(F)F (single isomer, unassigned) [Compound 130B] | 107 | 110 | – | 0.77 | 72.2 | 94 | E (501 ≤ E ≤ 10.000) | – | – | – | E (501 ≤ E ≤ 10.000) | –
9 | CN(c1ccc(-c2cn3c(=O)ccnc3cc2O)nn1)[C@@H]1C[C@H]2CC[C@@H]([C@@H]1F)N2C (single isomer, unassigned) [Compound 95A] | 85 | 115 | – | 0.15 | 8.79 | 59 | – | E (501 ≤ E ≤ 10.000) | E (501 ≤ E ≤ 10.000) | – | – | –
10 | Cc1nc2cc(O)c(-c3ccc(N(C)[C@@H]4C[C@H]5CC[C@H](N5)C4F)nn3)cc2o1 (stereo in doubt) [Compound 40A, 6-(6-(((1S,2R,3R,5R)-2-fluoro-8-azabicyclo[3.2.1]octan-3-yl)(methyl)amino)pyridazin-3-yl)-2-methylbenzo[d]oxazol-5-ol] | 62 | 92 | – | 3.68 | 57.9 | 16 | – | E (501 ≤ E ≤ 10.000) | – | 6.30 to 7.00 | – | –
11 | CN(C)C(=O)c1cc(O)c(-c2ccc(N(C)[C@@H]3C[C@H]4CC[C@@H]([C@@H]3F)N4C)nn2)cc1F (single isomer, unassigned) [Compound 104A] | 106 | 105 | – | 1.23 | 43.1 | 35 | E (501 ≤ E ≤ 10.000) | – | – | – | E (501 ≤ E ≤ 10.000) | –
12 | CN(c1ccc(-c2cc3c(=O)n(C)cnc3cc2O)nn1)[C@@H]1C[C@H]2CC[C@@H]([C@@H]1F)N2C [Compound 102A, 6-(6-(((1S,2S,3R,5R)-2-fluoro-8-methyl-8-azabicyclo[3.2.1]octan-3-yl)(methyl)amino)pyridazin-3-yl)-7-hydroxy-3-methylquinazolin-4(3H)-one] | 88 | 92 | 6.30 to 7.00 | 1.43 | 58.1 | 41 | E (501 ≤ E ≤ 10.000) | – | – | – | – | –
13 | CN1[C@@H]2CC[C@H]1[C@H](F)[C@H](N(c1ccc(-c3cc4ncn(CC(F)(F)F)c(=O)c4cc3O)nn1)C1CC1)C2 (single isomer, unassigned) [Compound 111A] | 90 | 83 | – | 0.89 | 44.3 | 45 | E (501 ≤ E ≤ 10.000) | – | – | – | E (501 ≤ E ≤ 10.000) | –
14 | CN(c1ccc(-c2cnc(C#N)cc2O)nn1)[C@@H]1C[C@H]2CC[C@H](N2)[C@@H]1F (single isomer, unassigned) [Compound 71A] | 88 | 92 | – | 3.87 | 26.2 | 7 | – | E (501 ≤ E ≤ 10.000) | E (501 ≤ E ≤ 10.000) | – | – | –
15 | CN(c1ccc(-c2cnc(C#N)cc2O)nn1)[C@H]1C[C@@H]2CC[C@@H](N2)[C@H]1F (single isomer, unassigned) [Compound 71B] | 90 | 89 | – | 5.04 | 20.9 | 4 | – | E (501 ≤ E ≤ 10.000) | E (501 ≤ E ≤ 10.000) | – | – | –
16 | CN(c1ccc(-c2cnc(-c3cnn(C)c3)nc2O)nn1)[C@H]1C[C@@H]2CC[C@@H](N2)[C@H]1F (racemic) [Compound 122, rac-5-(6-(((1R,2R,3S,5S)-2-fluoro-8-azabicyclo[3.2.1]octan-3-yl)(methyl)amino)pyridazin-3-yl)-2-(1-methyl-1H-pyrazol-4-yl)pyrimidin-4-ol] | 86 | 98 | – | < 0.2 | 0.6 | > 3 | – | – | – | – | E (501 ≤ E ≤ 10.000) | –
